According to US7109333B2, “Heterocyclic compounds” (SmithKline Beecham Corporation, priority 1998, dated 2006):
pIC50: −log10 of the molar value.

Tests used:
[1] = tested on: BT474 breast tumor cell line; assay: Methylene blue growth inhibition assay, BT474; assay type: cell-based; settings: Homo sapiens, BT-474, 72 h; BT474, 3 days; read-out: Cell Proliferation BT474, IC50
Protocol: (§1) Human breast (BT474), head and neck (HN5) and gastric tumor (N87) cell lines were cultured in low glucose DMEM (Life Technologies 12320–032) containing 10% fetal bovine serum (FBS) at 37° C. in a humidified 10% CO2, 90% air incubator. The SV40 transformed human mammary epithelial cell line HB4a was transfected with either human H-ras cDNA (HB4a r4.2) or the human c-erbB2 cDNA (HB4a c5.2). The HB4a clones were cultured in RPMI containing 10% FBS, insulin (5 μg/ml), hydrocortisone (5 μg/ml), supplemented with the selection agent hygromycin B (50 μg/ml). Cells were harvested using trypsin/EDTA, counted using a haemocytometer, and plated in […] of the appropriate media, at the following densities, in a 96-well tissue culture plate (Falcon 3075): BT474 10,000 cells/well, HN5 3,000 cells/well, N87 10,000 cells/well, HB4a c5.2 3,000 cells/well, HB4a r4.2 3,000 cells/well. The next day, compounds were diluted in DMEM containing […] gentamicin, at twice the final required concentration, from 10 mM stock solutions in DMSO. […] of these dilutions were added to the […] of media currently on the cell plates. Medium containing 0.6% DMSO was added to control wells. Compounds diluted in DMEM were added to all cell lines, including the HB4a r4.2 and HB4a c5.2 cell lines. The final concentration of DMSO in all wells was 0.3%. Cells were incubated at 37° C., 10% CO2 for 3 days. Medium was removed by aspiration. Cell biomass was estimated by staining cells with 100 μl per well methylene blue (Sigma M9140, 0.5% in 50:50 ethanol:water), and incubation at room temperature for at least 30 minutes. Stain was removed, and the plates rinsed under a gentle stream of water, and air-dried. To release stain from the cells 100 μl of solubilization solution was added (1% N-lauroyl sarcosine, Sodium salt, Sigma L5125, in PBS), and plates were shaken gently for about 30 minutes. Optical density at 620 nm was measured on a microplate reader. Percent inhibition of cell growth was calculated relative to vehicle treated control wells. Concentration of compound that inhibits 50% of cell growth (IC50) was interpolated using nonlinear regression (Levenberg-Marquardt) and the equation, y=Vmax*(1−(x/(K+x)))+Y2, where “K” was equal to the IC50.

[2] = tested on: N87 gastric tumor cell line; assay: Methylene blue growth inhibition assay, N87; assay type: cell-based; settings: Homo sapiens, 72 h; N87, 3 days; read-out: Cell Proliferation N87, IC50
Protocol: as §1

[3] = tested on: HB4a r4.2 (HB4a transfected with human H-ras cDNA); assay: Methylene blue growth inhibition assay, HB4a ras; assay type: cell-based; settings: 72 h, HB4a r4.2, 3 days, read-out: Cell Proliferation HB4a ras, IC50
Protocol: as §1

[4] = tested on: HN5 head and neck tumor cell line; assay: Methylene blue growth inhibition assay, HN5; assay type: cell-based; settings: Homo sapiens, 72 h; HN5, 3 days; read-out: Cell Proliferation HN5, IC50
Protocol: as §1

[5] = tested on: HB4a c5.2 (HB4a transfected with human c-erbB2 cDNA); assay: Methylene blue growth inhibition assay, HB4a erbB2; assay type: cell-based; settings: 72 h, HB4a c5.2, 3 days, read-out: Cell Proliferation HB4a erbB2, IC50
Protocol: as §1

c-erbB-2 = target: T1, c-erbB-2 (Homo sapiens, UniProt P04626); assay: Substrate phosphorylation assay, erbB2, assay (b) (SPA, 33P-ATP); assay type: biochemical; settings: Tables 1A and 1B
T1 construct: baculovirus expressed, recombinant constructs of the intracellular domains of c-erbB-2 and c-erbB-4; made in house
From the text: The substrate phosphorylation assays use baculovirus expressed, recombinant constructs of the intracellular domains of c-erbB-2 and c-erbB-4 that are constitutively active and EGFr isolated from solubilised A431 cell membranes. The method measures the ability of the isolated enzymes to catalyse the transfer of the g-phosphate from ATP onto tyrosine residues in a biotinylated synthetic peptide (Biotin-[…]. Substrate phosphorylation was detected following either of the following two procedures: a.) c-ErbB-2, c-ErbB4 or EGFr were incubated for 30 minutes, at room temperature, with 10 mM MnCl2, 10 mM ATP, 5 mM peptide, and test compound (diluted from a 5 mM stock in DMSO, final DMSO concentration is 2%) in 40 mM HEPES buffer, pH 7.4. The reaction was stopped by the addition of EDTA (final concentration 0.15 mM) and a sample was transferred to a streptavidin-coated 96-well plate. The plate was washed and the level of phosphotyrosine on the peptide was determined using a Europium-labelled antiphosphotyrosine antibody and quantified with a time-resolved fluorescence technique. b.) ErbB2 was incubated for 50 minutes at room temperature with 15 mM MnCl2, 2 mM ATP, 0.25 mCi [γ-^33P] ATP/well, 5 mM peptide substrate, and test compound (diluted from a 10 mM stock in DMSO, final DMSO concentration is 2%) in 50 mM MOPS pH 7.2. The reaction was terminated by the addition of […] of PBS containing 2.5 mg/ml streptavidin-coated SPA beads (Amersham Inc.), 50 mM ATP, 10 mM EDTA and 0.1% TX-100. The microtitre plates were sealed and SPA beads were allowed to settle for at least six hours. The SPA signal was measured using a Packard Topcount 96-well plate scintillation counter (Packard Instrument Co., Meriden, Conn.).

T1 sequence (P04626 676-1255 limits assumed): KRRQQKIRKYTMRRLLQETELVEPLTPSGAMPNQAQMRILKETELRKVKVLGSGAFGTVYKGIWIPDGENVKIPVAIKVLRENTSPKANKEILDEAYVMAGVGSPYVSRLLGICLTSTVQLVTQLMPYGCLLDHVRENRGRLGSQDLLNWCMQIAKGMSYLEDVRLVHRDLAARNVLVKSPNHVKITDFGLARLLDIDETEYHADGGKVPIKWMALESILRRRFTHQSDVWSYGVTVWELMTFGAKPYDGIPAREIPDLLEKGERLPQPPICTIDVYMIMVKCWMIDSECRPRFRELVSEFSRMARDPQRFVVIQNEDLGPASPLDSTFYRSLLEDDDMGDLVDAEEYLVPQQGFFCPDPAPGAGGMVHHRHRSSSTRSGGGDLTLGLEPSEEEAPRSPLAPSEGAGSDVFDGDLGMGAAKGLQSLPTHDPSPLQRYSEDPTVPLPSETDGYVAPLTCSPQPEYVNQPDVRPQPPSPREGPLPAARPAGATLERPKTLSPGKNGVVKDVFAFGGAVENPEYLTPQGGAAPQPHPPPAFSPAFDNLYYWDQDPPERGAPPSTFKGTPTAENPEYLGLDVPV

| SMILES | pIC50 [1] | pIC50 [2] | pIC50 [3] | pIC50 [4] | pIC50 [5] | pIC50 (c-erbB-2) |
| --- | --- | --- | --- | --- | --- | --- |
| CS(=O)(=O)CCNCc1nc(-c2ccc3ncnc(Nc4ccc5c(cnn5Cc5cccc(F)c5)c4)c3c2)cs1 [Example 21, N-[1-(3-fluorobenzyl)-1H-indazol-5-yl]-6-[2-({[2-(methanesulphonyl)ethyl]amino}methyl)-1,3-thiazol-4-yl]-4-quinazolinamine] | > 5.30 | > 5.30 | 4.60 to 5.30 | > 5.30 | > 5.30 | > 7.00 |
| CS(=O)(=O)CCNCc1ccc(-c2ccc3ncnc(Nc4ccc(S(=O)(=O)c5ccccc5)cc4)c3c2)o1 [Example 22, 6-[5-({[2-(methanesulphonyl)ethyl]amino}methyl)-2-furyl]-N-[4-(benzenesulphonyl)phenyl]-4-quinazolinamine] | > 5.30 | > 5.30 | 4.30 to 4.60 | > 5.30 | > 5.30 | > 7.00 |
| CS(=O)(=O)CCNCc1nc(-c2ccc3ncnc(Nc4ccc(S(=O)(=O)c5ccccc5)cc4)c3c2)cs1 [Example 23, 6-[2-({[2-(methanesulphonyl)ethyl]amino}methyl)-1,3-thiazol-4-yl]-N-[4-(benzenesulphonyl)phenyl]-4-quinazolinamine] | > 5.30 | > 5.30 | 4.30 to 4.60 | > 5.30 | > 5.30 | > 7.00 |
| CS(=O)(=O)CCNCc1nc(-c2ccc3ncnc(Nc4ccc(OCc5cccc(C(F)(F)F)c5)cc4)c3c2)cs1 [Example 24, 6-[2-({[2-(methanesulphonyl)ethyl]amino}methyl)-1,3-thiazol-4-yl]-N-(4-{[3-(trifluoromethyl)benzyl]oxy}phenyl)-4-quinazolinamine] | 4.60 to 5.30 | 4.60 to 5.30 | < 4.30 | > 5.30 | 4.60 to 5.30 | > 7.00 |
| CS(=O)(=O)CCNCc1nc(-c2ccc3ncnc(Nc4ccc(OCc5cccc(F)c5)c(F)c4)c3c2)cs1 [Example 25, N-{3-fluoro-4-[(3-fluorobenzyl)oxy]phenyl}-6-[2-({[2-(methanesulphonyl)ethyl]amino}methyl)-1,3-thiazol-4-yl]-4-quinazolinamine] | > 5.30 | > 5.30 | < 4.30 | > 5.30 | > 5.30 | > 7.00 |
| CS(=O)(=O)CCNCc1nc(-c2ccc3ncnc(Nc4ccc5c(cnn5Cc5ccccc5)c4)c3c2)cs1 [Example 26, N-(1-benzyl-1H-indazol-5-yl)-6-[2-({[2-(methanesulphonyl)ethyl]amino}methyl)-1,3-thiazol-4-yl]-4-quinazolinamine] | > 5.30 | > 5.30 | 4.60 to 5.30 | > 5.30 | > 5.30 | > 7.00 |
| CS(=O)(=O)CCNCc1ccc(-c2ccc3ncnc(Nc4ccc(OCc5ccccc5)c(F)c4)c3c2)o1 [Example 27] | > 5.30 | > 5.30 | 4.60 to 5.30 | > 5.30 | > 5.30 | > 7.00 |
| CS(=O)(=O)CCNCc1ccc(-c2ccc3ncnc(Nc4ccc(OCc5ccccc5)c(Cl)c4)c3c2)o1 [Example 28] | > 5.30 | > 5.30 | 4.30 to 4.60 | > 5.30 | > 5.30 | > 7.00 |
| COc1cc2ncnc(Nc3ccc(S(=O)(=O)c4ccccc4)cc3)c2cc1-c1ccc(CNCCS(C)(=O)=O)o1 [Example 33, 6-[5-({[2-(Methanesulphonyl)ethyl]amino}methyl)-2-furyl]-7-methoxy-N-(4-benzenesulphonyl)phenyl-4-quinazolinamine] | > 5.30 | > 5.30 | > 5.30 | > 5.30 | > 5.30 | > 7.00 |
| CS(=O)(=O)CCNCc1ccc(-c2cc3c(Nc4ccc(OCc5ccccc5)cc4)ncnc3cc2F)o1 [Example 34, N-[4-(Benzyloxy)phenyl]-7-fluoro-6-[5-({[2-(methanesulphonyl)ethyl]amino}methyl)-2-furyl]-4-quinazolinamine] | > 5.30 | > 5.30 | < 4.30 | > 5.30 | > 5.30 | > 7.00 |
